Measurements: publication PMC2994686, “The Function and Three-Dimensional Structure of a Thromboxane A2/Cysteinyl Leukotriene-Binding Protein from the Saliva of a Mosquito Vector of the Malaria Parasite” (PLoS Biology, 2010)
“Also recorded” adds a separate entry of the source. Read-outs that look alike come from different tables or passages of the source.

Legend:
[1] = biological target: T1, AnSt-D7L1 (Anopheles stephensi, UniProt Q95NY5); conditions: for binding to AnSt-D7L1 by ITC (in words): ITC screen of candidate ligands, partly unpublished data; for Kd: read-out: dissociation constant (Kd), ITC, 35°C, 40 µM ligand in syringe, 4 µM AnSt-D7L1 in cell, single binding site model
Protocol: (§1) Binding experiments were performed on a MicroCal VP-ITC instrument. For CysLT experiments the syringe contained a 20 µM ligand solution, and the AnSt-D7L1 concentration in the cell was 2 µM. For the TXA2 analog experiments the ligand solution used to fill the syringe was 40 µM and the AnSt-D7L1 concentration in the cell was 4 µM. Assays were performed at 35°C with successive 10 µL injections.
(§2) Binding experiments were performed on a MicroCal VP-ITC instrument. For these experiments, the ligand solution used to fill the syringe was 80 µM and AnSt-D7L1 concentration in the calorimeter cell was 8 µM. Assays were performed at 35°C with successive 10 µL injections.
(§3) AnSt-D7L1 was prepared for ITC experiments by dialysis against 20 mM Tris-HCl 0.15 M NaCl pH 7.4 for 1 h. Binding experiments were performed on a MicroCal VP-ITC instrument. Aliquots of lipid stock solutions in ethanol or methyl acetate were dried under a stream of nitrogen in a glass vial, then dissolved in 20 mM Tris HCl, 0.15 M NaCl pH 7.4, vortexed, and sonicated for 8 min. Non-lipidic ligands were dissolved in 20 mM Tris HCl, 0.15 M NaCl pH 7.4. All solutions were degassed prior to use. Assays were performed at 35°C with successive 10 µL injections, with a spacing interval of 180 s and a syringe stirring speed of 290 rpm. In all the cases, after subtraction of the heats of dilution, the measured heats were converted to enthalpies and analyzed by fitting to a single-site binding model using the Microcal Origin software.

[2] = test system: AeD7; design: method as in PMID 19234127; conditions: cited from earlier work
[3] = biological target: T1, AnSt-D7L1; test: Incubation of LTC4 with AnSt-D7L1, gel filtration, HPLC and mass spectrometry (test for hydrolytic or enzymatic function); design: made in house; conditions: incubated at 25°C; mass spectrum of bound versus free ligand
Protocol: Fractions containing the complex were then applied to a C18 HPLC column, eluted with methanol, and analyzed by mass spectrometry.
(B) LTC4 was injected alone in order to obtain a retention volume measurement for the free ligand. In both cases, the column was eluted with 100 mM ammonium acetate pH 7.2 at a flow rate of 60 µL per min. (0.39 MB TIF) Click here for additional data file.
Supplementary file pbio.1000547.s003.tif: Figure S3 Mass spectral analysis of the AnSt-D7L1-LTC4 complex after gel filtration chromatography. Top: The peak fraction from the gel filtration of Figure S2 (3 µl) was applied to a C18 column and eluted with 5% methanol 0.1% acetic acid for 10 min, then 5%–95% methanol 0.1% acetic acid (0.3 mm diameter column in 20 min at 3 µl/min). The eluent was analyzed directly by MS/MS. […] The inset is a sample collision-induced dissociation spectrum (35% intensity) recorded at 61–65 min. (2.15 MB TIF) Click here for additional data file.

[4] = biological target: T1, AnSt-D7L1; test: biochemical
Protocol: as §1, §2, §3

[5] = biological target: CysLT1; design: method as in PMID 16107763; conditions: read-out: affinity of CysLT1; cited from earlier work
[6] = test system: Human platelet-rich plasma; test: Platelet aggregation assay in an aggregometer; assay type: cell-based; conditions: for effect on U46619-induced platelet shape change / effect on U46619-induced platelet aggregation: 1.3 µM U46619; for effect on U46619-induced platelet shape change: AnSt-D7L1 2 and 3 µM, SQ 29,548 1 µM without protein; for effect on collagen-induced platelet aggregation (comparison with TXA2 antagonists): 3 µM AnSt-D7L1, SQ 29,548, or indomethacin pre-treatment
Protocol: Figure 5 Effect of AnSt-D7L1 on platelet aggregation promoted by different agonists. Platelet-rich human plasma was incubated with different concentrations of AnSt-D7L1 for 1 min prior to the addition of agonists as indicated. Aggregation was measured at 37°C on an aggregometer. Unless otherwise stated protein concentration (µM) is shown under respective curves. (A) Concentration dependence of AnSt-D7L1 inhibition of collagen-mediated platelet aggregation at low concentration of collagen. (B) Lack of inhibition of collagen-mediated platelet aggregation by AnSt-D7L1 at high concentration of collagen. (C) Lack of inhibition of convulxin-mediated platelet aggregation by AnSt-D7L1. (D) ADP-mediated platelet aggregation in the absence of any protein (control), in the presence of 3 µM AnSt-D7L1, or in the presence of 3 µM RPAI1, which is known to bind ADP. (E) Lack of effect of AnSt-D7L1 on PMA-induced platelet aggregation. (F) Lack of effect of AnSt-D7L1 on ristocetin-induced platelet aggregation.
Figure 6 AnSt-D7L1 affects platelet aggregation promoted by TXA2. Platelet-rich human plasma was incubated with different concentrations of AnSt-D7L1 or buffer, as indicated, for 1 min prior to the addition of agonists indicated in each panel. (A) Aggregation mediated by collagen in the presence of TXA2 antagonists. The effect of 3 µM AnSt-D7L1 on collagen-induced aggregation was similar to the effect promoted by a thromboxane receptor (TP) antagonist (SQ 29,548) or by pre-incubating platelets with indomethacin, a general cyclooxygenase inhibitor. […] (B) AnSt-D7L1 has a dose dependent effect on U46619-induced platelet aggregation. Protein concentrations are shown on the bottom of each curve. […] (C) AnSt-D7L1 (3 µM) affects AA-induced platelet aggregation. […] Respective treatments are indicated in the bottom of each curve.
Platelets were prepared as described previously. Human platelet-rich plasma (∼2×10^5/µL final density) and Tyrode-BSA buffer in the presence or absence of AnSt-D7L1 (final volume 300 µL) were placed in an aggregometer and stirred at 1,200 rpm at 37°C for 1 min prior to the addition of different agonists. In experiments using the human TP (TXA2 receptor) antagonist SQ 29,548 or made in the presence of proteins (AnSt-D7L1 or RPAI-1), those compounds were added to the platelet suspension and Tyrode mix prior to addition of agonists. In experiments in which indomethacin, a general cycloxygenase inhibitor, was used, platelets were pre-incubated with the compound for 5 min prior to addition of agonists.

[7] = biological target: TP receptor; design: method as in PMID 18374420; conditions: Gα12/13-coupled signaling; read-out: EC50 for TP-mediated shape change; cited from earlier work
[8] = test system: rat aorta; test: Smooth muscle bioassay: U46619-induced contraction of rat aorta
Protocol: Figure 4 Smooth muscle contraction bioassay.
Tissue preparations were bathed in modified Tyrode solution (with 10 mM HEPES buffer, pH 7.4) during the course of the experiment, and the solutions were kept oxygenated by bubbling air into the bath.

T1 sequence (Q95NY5 19-315 limits assumed): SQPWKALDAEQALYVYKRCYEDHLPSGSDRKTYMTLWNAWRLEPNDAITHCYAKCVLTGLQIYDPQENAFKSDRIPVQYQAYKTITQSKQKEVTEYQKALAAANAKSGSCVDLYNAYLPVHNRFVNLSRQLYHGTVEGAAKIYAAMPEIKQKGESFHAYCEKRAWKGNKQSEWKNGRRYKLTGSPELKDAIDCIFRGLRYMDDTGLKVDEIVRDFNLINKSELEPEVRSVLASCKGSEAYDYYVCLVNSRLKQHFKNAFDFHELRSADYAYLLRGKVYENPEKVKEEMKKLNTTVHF

With `CCCCC/C=C\C/C=C\C/C=C\C/C=C\CCCC(=O)O` [AA, arachidonic acid] the “binding to AnSt-D7L1 by ITC (in words)” value [1] was “no detectable binding”.

With `Nc1ncnc2c1ncn2[C@@H]1O[C@H](COP(=O)(O)OP(=O)(O)O)[C@@H](O)[C@H]1O` [ADP, adenosine diphosphate] the “binding to AnSt-D7L1 by ITC (in words)” value [1] was “Neither showed any detectable binding”.

For `CCCCC/C=C\C[C@@H](O)/C=C/C=C/C=C\[C@@H](O)CCCC(=O)O` [LTB4, leukotriene B4], the “binding to AnSt-D7L1 by ITC (in words)” value [1] is given as “did not bind” and the “binding to AeD7 (in words)” value [2] is given as “low affinity”.

In the case of `CCCCC/C=C\C\C=C/C=C/C=C/[C@@H](SC[C@H](NC(=O)CC[C@H](N)C(=O)O)C(=O)NCC(=O)O)[C@@H](O)CCCC(=O)O` [LTC4, leukotriene C4], the “chemical modification of bound LTC4 by AnSt-D7L1” value [3] is reported as “binds but does not chemically modify”.

Compound `CCCCC/C=C\C\C=C/C=C/C=C/[C@@H](SC[C@H](N)C(=O)NCC(=O)O)[C@@H](O)CCCC(=O)O` [LTD4, leukotriene D4] has a Kd [4] of 5 ± 1 nM.

For `CCCCC/C=C\C\C=C/C=C/C=C/[C@@H](SC[C@H](N)C(=O)O)[C@@H](O)CCCC(=O)O` [LTE4, leukotriene E4], the Kd [5] is given as roughly 100 nM.

With `CCCCC[C@H](O)/C=C/[C@H]1C(=O)C[C@H](O)[C@@H]1C/C=C\CCCC(=O)O` [PGD2] the “binding to AnSt-D7L1 by ITC (in words)” value [1] was “affinities much lower than those seen with CysLTs and TXA2 analogs”.

In the case of `CCCCC[C@H](O)/C=C/[C@H]1[C@H](O)CC(=O)[C@@H]1C/C=C\CCCC(=O)O` [PGE2, prostaglandin E2], the “binding to AnSt-D7L1 by ITC (in words)” value [1] is reported as “affinities much lower than those seen with CysLTs and TXA2 analogs” and the Kd [4] is reported as 1900 ± 200 nM.

With `CCCCC[C@H](O)/C=C/[C@@H]1[C@@H](C/C=C\CCCC(=O)O)[C@@H](O)C[C@H]1O` [PGF2α, prostaglandin F2α] the “binding to AnSt-D7L1 by ITC (in words)” value [1] was “affinities much lower than those seen with CysLTs and TXA2 analogs” and the Kd [4] was 671 ± 61 nM.

For `O=C(O)CCC/C=C\C[C@@H]1[C@H](CNNC(=O)Nc2ccccc2)[C@H]2CC[C@@H]1O2` [SQ 29,548], the “effect on U46619-induced platelet shape change” value [6] was “prevented” and the “effect on collagen-induced platelet aggregation (comparison with TXA2 antagonists)” value (“effect … (comparison with TXA2 antagonists)” below) [6] was “attenuated”.

In the case of `CCCCC[C@H](O)/C=C/[C@H]1OC(O)C[C@H](O)[C@@H]1C/C=C\CCCC(=O)O` (stereo partly shown) [TXB2, thromboxane B2], the Kd [4] is reported as 1300 ± 200 nM.

For `CCCCC[C@H](O)/C=C/[C@@H]1[C@@H](C/C=C\CCCC(=O)O)[C@H]2CO[C@@H]1C2` [U46619], the Kd [1] is given as roughly 98 nM, the EC50 [7] is given as roughly 13 nM and the “binding to AeD7 (in words)” value [2] is given as “no detectable binding”.

In the case of `CCCCCC/C=C/C1C2CC(N=N2)C1C/C=C\CCCC(=O)O` (stereo not shown) [U51605], the “binding to AnSt-D7L1 by ITC (in words)” value [1] is reported as “detectable but much weaker binding than U46619”.

Work on `CCCCC[C@H](O)/C=C/[C@H]1CC2CC(C2)[C@@H]1C/C=C\CCCC(=O)O` [carbocyclic TXA2] yielded a Kd [1] of roughly 38 nM.

In the case of `COc1ccc2c(c1)c(CC(=O)O)c(C)n2C(=O)c1ccc(Cl)cc1` [indomethacin], the “effect … (comparison with TXA2 antagonists)” value [6] is reported as “attenuated”.

For `CNC[C@H](O)c1cccc(O)c1` [phenylephrine], the “contraction of aorta after relaxation by AnSt-D7L1” value ([8]; 3 µM phenylephrine added after relaxation) was “contracted normally”.

For “AnSt-D7L1: recombinant two-domain D7 salivary protein from An. stephensi that binds CysLTs and TXA2”, the “reversal of contraction induced by U46619” value ([8]; aorta pre-contracted with 1 µM U46619, 0.1 µM AnSt-D7L1 added after plateau) was “caused relaxation”, the “effect on U46619-induced contraction of aorta” value ([8]; pre-incubation with AnSt-D7L1, 0.1 µM U46619) was “inhibited; also recorded: no contraction” and the “increase of the amount of U46619 needed to promote contraction” value ([8]; pre-incubation with AnSt-D7L1, successive additions of 0.1 µM U46619) was “approximately 3 fold”. For the same compound, the “effect on U46619-induced platelet aggregation” value ([6]; 1 µM AnSt-D7L1) was “dramatically inhibited aggregation”, the “effect on U46619-induced platelet aggregation” value ([6]; 2 and 3 µM AnSt-D7L1) was “completely prevented aggregation” and the “effect on U46619-induced platelet shape change” value [6] was “not completely inhibited”. The “effect on U46619-induced platelet aggregation” value ([6]; low AnSt-D7L1 concentrations, less than 1:1 ratio) was “delayed but did not prevent platelet aggregation”, the “effect on AA-induced platelet aggregation” value ([6]; AA as agonist, 3 µM AnSt-D7L1, or indomethacin pre-incubation without protein) was “drastically decreased” and the “inhibition of convulxin-induced platelet aggregation” value ([6]; GPVI agonist convulxin) was “inhibitory effect of AnSt-D7L1 was lost”. The “inhibition of collagen-induced platelet aggregation” value ([6]; collagen at high concentration) was “inhibitory effect of AnSt-D7L1 was lost”, the “effect … (comparison with TXA2 antagonists)” value [6] was “very similar” and the “inhibition of collagen-induced platelet aggregation” value ([6]; low collagen 1.6 µg/mL, 1 µM AnSt-D7L1) was “almost completely inhibited”. The “effect on the platelet response to collagen stimulation” value ([6]; low collagen, 0.03 µM AnSt-D7L1) was “sufficient to remove a significant fraction of the TXA2”, the “effect on the platelet aggregation response to collagen” value ([6]; low collagen, 0.1 µM AnSt-D7L1) was “eliminates most of the aggregation response” and the “inhibition of ADP-induced platelet shape change” value ([6]; minimal dose of ADP eliciting shape change, 3 µM protein) was “no inhibitory effect”. The “effect on PMA-induced platelet aggregation” value ([6]; protein kinase C activator PMA) was “no effect” and the “effect on ristocetin-induced platelet agglutination” value ([6]; ristocetin, VWF-dependent) was “no effect”.

With platelet activating factor [PAF] the “binding to AnSt-D7L1 by ITC (in words)” value [1] was “Neither showed any detectable binding”.
